Data published in ChEMBL document CHEMBL4819133, “Exploiting the HSP60/10 chaperonin system as a chemotherapeutic target for colorectal cancer” (Bioorg Med Chem, 2021).
The source made the active and inactive calls. The rule behind the calls is not given here.

Assays:
[1] = test system: HT-29; test: Inhibition of clonogenicity in human HT-29 cells assessed as reduction in colony formation at 50 uM incubated for 72 hrs followed by culturing in fresh compound-free medium for 7 days by crystal violet staining based analysis; format: functional
[2] = test system: DLD-1; test: Inhibition of clonogenicity in human DLD-1 cells assessed as reduction in size of colony incubated for 72 hrs followed by culturing in fresh compound-free medium for 7 days by crystal violet staining based analysis; format: functional, cell-based
[3] = test system: HCT-116; test: Cytostatic activity in human HCT-116 cells assessed as viable cells at 100 uM incubated for 48 hrs by AnnexinV/PI staining based flow cytometry; format: functional, cell-based
[4] = test system: HCT-116; test: Inhibition of cell migration in human HCT-116 cells at 0.14 to 100 uM measured for 72 hrs by scratch wound healing assay based phase contrast microscopy; format: functional; conditions: dose 0.14-100 µM
[5] = test system: HCT-116; test: Inhibition of clonogenicity in human HCT-116 cells assessed as reduction in number of colony formation incubated for 72 hrs followed by culturing in fresh compound-free medium for 7 days by crystal violet staining based analysis; format: functional, cell-based
[6] = Inhibition of refolded MDH (unknown origin)-mediated oxidation of NADPH in presence of mesoxalic acid treated with compound after refolding of the denatured enzyme; design: species or system Homo sapiens
[7] = biological target: T1, E. coli GroEL/ES (Escherichia coli, UniProt P0A6F5); test: Inhibition of Escherichia coli GroEL/ES-mediated refolding of the denatured rhodanese; format: protein-complex assay
[8] = test system: HCT-116; test: Induction of apoptosis in human HCT-116 cells assessed as compact cell monolayer at 100 uM measured for 72 hrs by phase contrast microscopy; format: functional, cell-based
[9] = biological target: T1, E. coli GroEL/ES; test: Inhibition of Escherichia coli GroEL/ES-mediated refolding of the denatured malate dehydrogenase; format: protein-complex assay
[10] = test system: HT-29; test: Inhibition of clonogenicity in human HT-29 cells assessed as reduction in number of colony formation incubated for 72 hrs followed by culturing in fresh compound-free medium for 7 days by crystal violet staining based analysis; format: functional, cell-based
[11] = Cytotoxicity against human FHs74Int cells assessed as reduction in cell viability measured after 48 hrs by AlamarBlue assay; format: cell-based
[12] = test system: DLD-1; test: Inhibition of clonogenicity in human DLD-1 cells assessed as reduction in number of colony formation incubated for 72 hrs followed by culturing in fresh compound-free medium for 7 days by crystal violet staining based analysis; format: functional, cell-based
[13] = test system: HCT-116; test: Inhibition of clonogenicity in human HCT-116 cells assessed as reduction in colony formation at 50 uM incubated for 72 hrs followed by culturing in fresh compound-free medium for 7 days by crystal violet staining based analysis; format: functional
[14] = test system: HCT-116; test: Cytotoxicity against human HCT-116 cells assessed as reduction in cell viability measured after 48 hrs by AlamarBlue assay; format: functional, cell-based; conditions: HCT-116, 48 h
[15] = test system: HT-29; test: Cytotoxicity against human HT-29 cells assessed as reduction in cell viability measured after 48 hrs by AlamarBlue assay; format: functional, cell-based; conditions: HT-29, 48 h
[16] = test system: HCT-116; test: Inhibition of cell migration in human HCT-116 cells measured at 72 hrs by scratch wound healing assay based phase contrast microscopy; format: functional; conditions: HCT-116, 72 h
[17] = test system: DLD-1; test: Inhibition of clonogenicity in human DLD-1 cells assessed as reduction in colony formation at 50 uM incubated for 72 hrs followed by culturing in fresh compound-free medium for 7 days by crystal violet staining based analysis; format: functional
[18] = test system: HEK293; test: (§1) Cytotoxicity against human HEK293 cells assessed as reduction in cell viability measured after 48 hrs by AlamarBlue assay; format: cell-based; conditions: hek293, 48 h
[19] = biological target: HSP60/HSP10 (Homo sapiens, UniProt P10809); test: Inhibition of human mitochondrial HSP60/10-mediated refolding of the denatured malate dehydrogenase; format: mitochondria, Mitochondria
[20] = biological target: T2, Thiosulfate sulfurtransferase (Homo sapiens, UniProt Q16762); test: Inhibition of refolded Rhodanese (unknown origin)-mediated conversion of cyanide to thiocyanate treated with compound after refolding of the denatured enzyme
T2 sequence (Q16762 whole entry): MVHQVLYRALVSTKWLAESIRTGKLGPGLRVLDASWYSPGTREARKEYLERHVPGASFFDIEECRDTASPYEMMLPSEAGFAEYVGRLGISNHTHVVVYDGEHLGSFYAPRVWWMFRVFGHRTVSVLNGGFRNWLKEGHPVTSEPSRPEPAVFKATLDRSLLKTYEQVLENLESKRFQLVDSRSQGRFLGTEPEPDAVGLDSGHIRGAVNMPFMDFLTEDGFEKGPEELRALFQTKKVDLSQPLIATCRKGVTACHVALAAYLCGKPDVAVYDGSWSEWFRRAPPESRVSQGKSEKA

[21] = test system: FHC; test: Cytotoxicity against human FHC cells assessed as reduction in cell viability measured after 48 hrs by AlamarBlue assay; format: cell-based
[22] = test system: HCT-116; test: Inhibition of clonogenicity in human HCT-116 cells assessed as reduction in size of colony incubated for 72 hrs followed by culturing in fresh compound-free medium for 7 days by crystal violet staining based analysis; format: functional, cell-based
[23] = test system: HT-29; test: Inhibition of clonogenicity in human HT-29 cells assessed as reduction in size of colony incubated for 72 hrs followed by culturing in fresh compound-free medium for 7 days by crystal violet staining based analysis; format: functional, cell-based
[24] = Cytotoxicity against human THLE-3 cells assessed as reduction in cell viability measured after 48 hrs by AlamarBlue assay; format: cell-based; conditions: for CC50: thle-3, 48 h
[25] = test system: DLD-1; test: Cytotoxicity against human DLD-1 cells assessed as reduction in cell viability measured after 48 hrs by AlamarBlue assay; format: functional, cell-based; conditions: DLD-1, 48 h
[26] = test system: HCT-116; test: Inhibition of cell migration in human HCT-116 cells at 10 uM measured at >=20 hrs by scratch wound healing assay based phase contrast microscopy; format: functional; conditions: time hrs >=20
[27] = test system: HCT-116; test: Induction of apoptosis in human HCT-116 cells at 100 uM incubated for 48 hrs by AnnexinV-FITC/PI staining based flow cytometry; format: functional, cell-based
[28] = test system: HCT-116; test: Induction of cell death in human HCT-116 cells assessed as loss of cell monolayer integrity and cytoplasm extrusion at 100 uM measured for 72 hrs by phase contrast microscopy; format: functional, cell-based
[29] = as §1; format: cell-based; conditions: HEK293 cells

Sequence of HSP60/HSP10 (P10809 whole entry): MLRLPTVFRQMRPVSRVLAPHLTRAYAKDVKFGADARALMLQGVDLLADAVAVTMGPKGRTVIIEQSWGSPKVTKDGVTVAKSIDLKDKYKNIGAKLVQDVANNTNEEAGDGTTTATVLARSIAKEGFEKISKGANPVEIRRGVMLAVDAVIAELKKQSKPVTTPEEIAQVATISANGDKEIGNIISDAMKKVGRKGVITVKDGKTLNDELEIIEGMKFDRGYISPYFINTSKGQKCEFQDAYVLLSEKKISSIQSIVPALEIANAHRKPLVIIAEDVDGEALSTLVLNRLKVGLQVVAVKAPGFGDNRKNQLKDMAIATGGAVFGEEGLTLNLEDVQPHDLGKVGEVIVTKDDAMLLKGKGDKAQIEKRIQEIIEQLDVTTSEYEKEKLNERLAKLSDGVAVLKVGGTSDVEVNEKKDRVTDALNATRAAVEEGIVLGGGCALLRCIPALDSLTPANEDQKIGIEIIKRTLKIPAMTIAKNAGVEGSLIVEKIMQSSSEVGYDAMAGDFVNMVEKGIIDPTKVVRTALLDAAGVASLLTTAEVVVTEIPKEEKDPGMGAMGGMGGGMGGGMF
Sequence of HSP60/HSP10 (P61604 whole entry, further chain): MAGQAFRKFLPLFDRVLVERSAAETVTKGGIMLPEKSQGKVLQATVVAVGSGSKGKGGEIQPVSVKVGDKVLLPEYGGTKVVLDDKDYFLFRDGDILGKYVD
T1 sequence (P0A6F5 whole entry, looked up): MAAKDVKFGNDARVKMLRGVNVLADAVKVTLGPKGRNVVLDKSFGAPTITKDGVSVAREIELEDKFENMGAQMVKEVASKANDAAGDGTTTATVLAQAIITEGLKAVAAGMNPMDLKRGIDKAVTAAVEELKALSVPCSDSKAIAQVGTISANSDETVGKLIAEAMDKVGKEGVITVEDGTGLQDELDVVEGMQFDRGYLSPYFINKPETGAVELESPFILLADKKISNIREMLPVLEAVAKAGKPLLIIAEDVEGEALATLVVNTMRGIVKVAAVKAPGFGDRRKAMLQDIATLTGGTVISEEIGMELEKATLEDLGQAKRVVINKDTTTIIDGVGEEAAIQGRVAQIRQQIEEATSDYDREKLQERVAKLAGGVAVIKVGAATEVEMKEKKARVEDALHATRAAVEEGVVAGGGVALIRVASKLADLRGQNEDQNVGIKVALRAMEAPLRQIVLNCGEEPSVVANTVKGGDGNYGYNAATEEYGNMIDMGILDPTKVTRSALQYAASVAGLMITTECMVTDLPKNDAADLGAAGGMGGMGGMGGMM

| Compound | inhibition [1] | EC50 [2] | Activity [3] | inhibition [4] | EC50 [5] | IC50 [6] | IC50 [7] | Activity [8] | IC50 [9] | EC50 [10] | CC50 [11] | EC50 [12] | EC50 [14] | EC50 [16] | IC50 [19] | IC50 [20] | CC50 [21] | EC50 [22] | EC50 [23] | EC50 [25] | further results |
| --- | --- | --- | --- | --- | --- | --- | --- | --- | --- | --- | --- | --- | --- | --- | --- | --- | --- | --- | --- | --- | --- |
| COc1ccc(S(=O)(=O)Nc2ccc3oc(-c4ccc(NC(=O)c5ccc(Cl)s5)cc4)nc3c2)cc1 | Active | 11 µM | Active | Active | 2.7 µM | > 62.5 µM | 15 µM | inactive | 18 µM | 2.3 µM | > 100 µM | > 50 µM | 5.4 µM | 5.7 µM | 61 µM | > 100 µM | > 100 µM | 1.1 µM | 0.71 µM | 4.6 µM | inhibition [13]: Active; EC50 [15]: 1.9 µM; inhibition [17]: Active; CC50 [18]: 15 µM; CC50 [24]: 57 µM |
| Cc1ccc(S(=O)(=O)Nc2ccc(-c3nc4cc(NS(=O)(=O)c5ccc(C)cc5)ccc4o3)cc2)cc1 | – | 12 µM | – | – | 14 µM | > 62.5 µM | 30 µM | – | 27 µM | 13 µM | 74 µM | 16 µM | 5.9 µM | 9 µM | > 100 µM | > 100 µM | 51 µM | 15 µM | 10 µM | 13 µM | inhibition at 50 µM [1]: 100%; inhibition [26]: Active; inhibition [2]: Dose-Dependent Effect; Activity [27]: Active; inhibition [5]: Dose-Dependent Effect; inhibition [10]: Dose-Dependent Effect; inhibition [12]: Dose-Dependent Effect; inhibition at 50 µM [13]: 100%; Activity [28]: Active; EC50 [15]: 11 µM; inhibition at 50 µM [17]: 100%; CC50 at 48 h [29]: 32 µM; inhibition [22]: Dose-Dependent Effect; inhibition [23]: Dose-Dependent Effect; CC50 at 48 h ([24]; THLE-3 cells): 15 µM |
| COc1ccc(S(=O)(=O)Nc2ccc3oc(-c4ccc(NC(=O)c5cccc(C)c5[N+](=O)[O-])cc4)nc3c2)cc1 | Active | 1.6 µM | Active | Active | 19 µM | > 62.5 µM | 28 µM | inactive | 33 µM | 26 µM | > 100 µM | > 50 µM | 4.4 µM | 2.3 µM | 72 µM | > 100 µM | > 100 µM | 2.6 µM | 2 µM | 1.5 µM | inhibition [13]: Active; inhibition [17]: Active; CC50 [18]: 12 µM; CC50 [24]: 22 µM |
